Test results from ChEMBL document CHEMBL1124767, “Synthesis, pharmacological effects, and conformation of 4,4-disubstituted 1,4-dihydropyridines” (J Med Chem, 1990).
Converted amounts (≈) assume the structure as drawn.

What was measured:
Canis familiaris = assay: In vivo antihypertensive activity against anaesthetized dogs after intravenous administration of specified threshold dose; assay type: functional, Canis lupus familiaris
Oryctolagus cuniculus = organism: Oryctolagus cuniculus; assay: Evaluated in vitro for the inhibition of KCl-induced contraction of isolated rabbit aorta rings.; assay type: functional

IC50 (Oryctolagus cuniculus) [µg/mL] | Compound | Dose (Canis familiaris) [mg/kg]
0.04 (≈ 0.133 µM) | COC(=O)C1=C(C)NC(C)=C(C(=O)OC)C1c1ccccc1 | 0.05
3.6 (≈ 10.9 µM) | CCC1(c2ccccc2)C(C(=O)OC)=C(C)N=C(C)/C1=C(/O)OC (stereo unspecified) | 
2.3 (≈ 6.38 µM) | COC(=O)C1=C(C)N=C(C)/C(=C(/O)OC)C1(C)c1cccc([N+](=O)[O-])c1 (stereo unspecified) | 0.3
1.2 (≈ 3.81 µM) | COC(=O)C1=C(C)N=C(C)/C(=C(/O)OC)C1(C)c1ccccc1 (stereo unspecified) | 3
9 (≈ 26.1 µM) | CCOC(=O)C1=C(C)N=C(C)/C(=C(/O)OCC)C1(C)c1cccnc1 (stereo unspecified) | 3
0.5 (≈ 1.51 µM) | CCOC(=O)C1=C(C)N=C(C)/C(=C(/O)OCC)C1c1cccnc1 (stereo unspecified) | 0.3
